Our source for the mortality values is patent US20130317073A1, “METHODS OF PEST CONTROL IN SOYBEAN” (SYNGENTA LIMITED, priority 2011, published 2013).

The subject of the test is Euschistus heros. Description: Euschistus heros (neotropical brown stink bug) contact/feeding activity on sprayed soybean plants. The class given is in vivo. Conditions: 120 h, N-2 nymphs on sprayed 2 week old soybean plants, evaluation 5 days after infestation, average of two replicates, read-out: mortality and growth effects; for mortality at 3 ppm: Rate 3 ppm; for mortality at 6 ppm: Rate 6 ppm; for mortality at 12.5 ppm: Rate 12.5 ppm. The method, then: Euschistus heros (Neotropical Brown Stink Bug) (Contact/Feeding Activity)
2 week old soybean plants are sprayed in a turn table spray chamber with the diluted spray solutions. After drying, 2 soybean seeds are added and plants are infested with 10 N-2 nymphs of the neotropical brown stink bug Euschistus heros in plastic test boxes. Boxes are incubated in a climate chamber at 25° C. and 60% RH. Evaluation is done 5 days after infestation on mortality and growth effects. The data is an average of two replicates.

Broadly, the mortality is the percentage killed.

For the compound `Cc1cc(C2=NOC(c3cc(Cl)cc(Cl)c3)(C(F)(F)F)C2)ccc1C(=O)NC1CSC1` (stereo not drawn) [Compound 1], the mortality at 3 ppm was 65%, the mortality at 6 ppm worked out at 80% and the mortality at 12.5 ppm was 85%.
For `Cc1cc(C2=NOC(c3cc(Cl)cc(Cl)c3)(C(F)(F)F)C2)ccc1C(=O)NC1CS(=O)(=O)C1` (stereo not drawn) [Compound 2], in that order: 65%, 95% and 95%.
For `Cc1cc(C2=NOC(c3cc(Cl)cc(Cl)c3)(C(F)(F)F)C2)ccc1C(=O)NC1(C)CSC1` (stereo not drawn) [Compound 3], in that order: 0%, 20% and 75%.
As to `COC(=O)N1CC(NC(=O)c2ccc(C3=NOC(c4cc(Cl)cc(Cl)c4)(C(F)(F)F)C3)cc2C)C1` (stereo not drawn) [Compound 4], the mortality at 3 ppm worked out at 15%, the mortality at 6 ppm was 25% and the mortality at 12.5 ppm turned out to be 35%.
Consider `Cc1cc(C2=NOC(c3cc(Cl)cc(Cl)c3)(C(F)(F)F)C2)ccc1C(=O)NCC(=O)CC(F)(F)F` (stereo not drawn) [Compound 5], for which the mortality at 3 ppm was found to be 85%, the mortality at 6 ppm amounted to 90% and the mortality at 12.5 ppm amounted to 100%.
As to `O=C(CNC(=O)c1ccc(C2=NOC(c3cc(Cl)cc(Cl)c3)(C(F)(F)F)C2)c2ccccc12)CC(F)(F)F` (stereo not drawn) [Compound 6], the mortality at 3 ppm was found to be 95%, the mortality at 6 ppm was 100% and the mortality at 12.5 ppm was 95%.
On to `O=C(CNC(=O)c1ccc(C2=NOC(c3cc(Cl)cc(Cl)c3)(C(F)(F)F)C2)cc1)CC(F)(F)F` (stereo not drawn) [Compound 7], for which the mortality at 3 ppm was 5%, the mortality at 6 ppm stood at 20% and the mortality at 12.5 ppm came out at 60%.
Consider `CCCCNC(=O)c1ccc(C2=NOC(c3cc(Cl)cc(Cl)c3)(C(F)(F)F)C2)cc1C` (stereo not drawn) [Compound 8], for which the mortality at 3 ppm is 5%, the mortality at 6 ppm was 35% and the mortality at 12.5 ppm was 95%.
For `Cc1cc(C2=NOC(c3cc(Cl)cc(Cl)c3)(C(F)(F)F)C2)ccc1C(=O)NCC(F)(F)F` (stereo not drawn) [Compound 9], in that order: 15%, 75% and 70%.
